# Source: patent US20260191969A1, “COMPOSITION CONTAINING ANIONIC LONG-CHAIN LIPID TO BE USED FOR ATTENUATING SKIN BARRIER FUNCTION, AND DISPERSION CONTAINING COMPLEX COMPRISING CATIONIC LONG-CHAIN LIPID, ANIONIC LONG-CHAIN LIPID AND DRUG DISPERSED THEREIN” (KYUSHU UNIVERSITY, NATIONAL UNIVERSITY CORPORATION, priority 2022, published 2026)
# Strand notation (5' to 3'): a small letter for the sugar, then the base; units joined by * are phosphorothioate-linked, units joined directly phosphodiester-linked; [ ] holds rarer units or linkages, { } end groups; capitals alone tell only the bases. l = locked nucleic acid (LNA); [5mC] = 5-methylcytosine; d = 2'-deoxy (DNA)
# Test system: SNORA23
# Test: knock-down of target RNA after transdermal or subcutaneous administration to tumor-bearing mice (RT-PCR)
# Type: in vivo
# Conditions: for expression level of the target RNA (SNORA23): 250 μg ASO in 50 μL, two days after, skin, subcutaneous tumor, liver, FIG. 34
# Procedure: A formulation targeting SNORA23 was prepared. To mice, 3×10^6 ES2 ovarian carcinoma cells were subcutaneously transplanted, and the formation of subcutaneous tumor was checked 1 week after that. To the top (1 cm×1 cm) of a tumor or into the periphery of a tumor, 50 μL of hybrid particles containing 250 μg of ASO targeting SNORA23 was applied or subcutaneously injected. For the transdermal administration group, protective tape was wound once around the trunk including the administration site.
# Two days after the administration, the skin, subcutaneous tumor, and liver were isolated, and total RNA was extracted. The level of targeted RNA (SNORA23) was quantified, and the presence or absence of reduction in the expression level was examined by an RT-PCR method.
substance,measurement,setting,value
5′-GAAacctatgmCAmCa-3′ (lG*lA*lA*dA*dC*dC*dT*dA*dT*dG*l[5mC]*lA*l[5mC]*dA) [ASO],knock-down of target RNA in the liver,"irrespective of the route of administration, suggests migration of ASO into blood",knock-down effect
same,expression level of the target RNA (SNORA23),subcutaneous administration,Reduction of the expression level of the target RNA was induced
same,expression level of the target RNA (SNORA23),transdermal administration,Reduction of the expression level of the target RNA was induced
